Measurements: PubChem BioAssay (NCI)
Several values for one entry are separate records, joined by “and”; a condition that tells them apart may be missing. Identical values can stand only once.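 The compound was tested at five concentrations on cells cultured in 96-well plates, with a 48-hour exposure period. GI50: concentration for 50% inhibition of growth. TGI is the concentration that stops growth completely.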

Key:
Assay in all cases: NCI anticancer screen, dose series, 48 h
HS 578T breast = system: HS 578T breast
A549 NSCLC = system: A549 NSCLC
OVCAR-5 ovarian = system: OVCAR-5 ovarian
NCI-H226 lung = system: NCI-H226 lung
HL-60(TB) leukemia = system: HL-60(TB) leukemia
MOLT-4 leukemia = system: MOLT-4 leukemia
SN12C renal = system: SN12C renal
SK-OV-3 ovarian = system: SK-OV-3 ovarian
UO-31 renal = system: UO-31 renal
IGROV1 ovarian = system: IGROV1 ovarian

COc1cc(Cl)cc(-c2nn(-c3cccc(NC(=O)Nc4cc(C(F)(F)F)cc(C(F)(F)F)c4)c3)cc2-c2ccncc2)c1
GI50 (HS 578T breast): 1.89 µM
TGI (HS 578T breast): 13.6 µM
GI50 (A549 NSCLC): 0.386 µM
TGI (A549 NSCLC): 5.62 µM
GI50 (OVCAR-5 ovarian): 1.6 µM
TGI (OVCAR-5 ovarian): 10.1 µM
GI50 (NCI-H226 lung): 0.965 µM
TGI (NCI-H226 lung): 7.67 µM
GI50 (HL-60(TB) leukemia): 0.32 µM
TGI (HL-60(TB) leukemia): 2.49 µM
GI50 (MOLT-4 leukemia): 0.33 µM
TGI (MOLT-4 leukemia): 1.92 µM
GI50 (SN12C renal): 0.427 µM
TGI (SN12C renal): 3.05 µM
GI50 (SK-OV-3 ovarian): 1.22 µM
TGI (SK-OV-3 ovarian): 6.68 µM
GI50 (UO-31 renal): 0.28 µM
TGI (UO-31 renal): 1.92 µM
GI50 (IGROV1 ovarian): 0.669 µM
TGI (IGROV1 ovarian): 13.4 µM

O=C(Nc1ccc2[nH]c(=S)sc2c1)Nc1ccccc1F
GI50 (HS 578T breast): 37.6 µM
TGI (HS 578T breast): > 100 µM
GI50 (A549 NSCLC): 51.2 µM
TGI (A549 NSCLC): > 100 µM
GI50 (OVCAR-5 ovarian): 56.4 µM
TGI (OVCAR-5 ovarian): > 100 µM
GI50 (HL-60(TB) leukemia): 23.9 µM
TGI (HL-60(TB) leukemia): 93.5 µM
GI50 (MOLT-4 leukemia): 22.4 µM
TGI (MOLT-4 leukemia): > 100 µM
GI50 (SN12C renal): 41.9 µM
TGI (SN12C renal): > 100 µM
GI50 (SK-OV-3 ovarian): > 100 µM
TGI (SK-OV-3 ovarian): > 100 µM
GI50 (UO-31 renal): 4.09 µM
TGI (UO-31 renal): 22.5 µM
GI50 (IGROV1 ovarian): 3.58 µM
TGI (IGROV1 ovarian): > 100 µM

O=P(CCCCP(=O)(c1ccccc1)c1ccccc1)(c1ccccc1)c1ccccc1.[Cl][Sn]([Cl])([c]1ccccc1)[c]1ccccc1
GI50 (HS 578T breast): 4.1 µM
TGI (HS 578T breast): > 50.6 µM
GI50 (A549 NSCLC): 3.59 µM
TGI (A549 NSCLC): > 23.6 µM
GI50 (OVCAR-5 ovarian): 1.93 µM
TGI (OVCAR-5 ovarian): 4 µM
GI50 (NCI-H226 lung): 5.07 µM
TGI (NCI-H226 lung): 11.3 µM
GI50 (HL-60(TB) leukemia): 2.04 µM
TGI (HL-60(TB) leukemia): 6.61 µM
GI50 (MOLT-4 leukemia): 2.06 µM
TGI (MOLT-4 leukemia): > 100 µM
GI50 (SN12C renal): 2.1 µM
TGI (SN12C renal): 5.76 µM
GI50 (SK-OV-3 ovarian): 6.25 µM
TGI (SK-OV-3 ovarian): 19 µM
GI50 (UO-31 renal): 1.68 µM
TGI (UO-31 renal): 3.19 µM
GI50 (IGROV1 ovarian): 3.9 µM
TGI (IGROV1 ovarian): 8.39 µM

NC1=C(c2nc(-c3ccccc3)cs2)C(c2ccc(Br)cc2)c2c(c3ccccc3oc2=O)O1 (stereo not given)
GI50 (HS 578T breast): 30.4 µg/mL
TGI (HS 578T breast): 91.4 µg/mL
GI50 (A549 NSCLC): 46 µg/mL
TGI (A549 NSCLC): > 150 µg/mL
GI50 (OVCAR-5 ovarian): > 150 µg/mL
TGI (OVCAR-5 ovarian): > 150 µg/mL
GI50 (NCI-H226 lung): 22.3 µg/mL
TGI (NCI-H226 lung): 94 µg/mL
GI50 (HL-60(TB) leukemia): 21.9 µg/mL
TGI (HL-60(TB) leukemia): 97.2 µg/mL
GI50 (MOLT-4 leukemia): 33 µg/mL
TGI (MOLT-4 leukemia): 118 µg/mL
GI50 (SN12C renal): 85.9 µg/mL
TGI (SN12C renal): > 150 µg/mL
GI50 (SK-OV-3 ovarian): 60.1 µg/mL
TGI (SK-OV-3 ovarian): > 150 µg/mL
GI50 (IGROV1 ovarian): 96 µg/mL
TGI (IGROV1 ovarian): > 150 µg/mL

COC(=O)CCC1CCC(c2cc(F)ccc2F)(S(=O)(=O)c2ccc(Cl)cc2)CC1 (stereo not given)
GI50 (HS 578T breast): > 100 µM
TGI (HS 578T breast): > 100 µM
GI50 (A549 NSCLC): 64.4 µM
TGI (A549 NSCLC): > 100 µM
GI50 (OVCAR-5 ovarian): > 100 µM
TGI (OVCAR-5 ovarian): > 100 µM
GI50 (NCI-H226 lung): 86.8 µM
TGI (NCI-H226 lung): > 100 µM
GI50 (HL-60(TB) leukemia): 45.3 µM
TGI (HL-60(TB) leukemia): > 100 µM
GI50 (MOLT-4 leukemia): 49.8 µM
TGI (MOLT-4 leukemia): > 100 µM
GI50 (SN12C renal): > 100 µM
TGI (SN12C renal): > 100 µM
GI50 (SK-OV-3 ovarian): > 100 µM
TGI (SK-OV-3 ovarian): > 100 µM
GI50 (UO-31 renal): 28 µM
TGI (UO-31 renal): > 100 µM
GI50 (IGROV1 ovarian): > 100 µM
TGI (IGROV1 ovarian): > 100 µM

Oc1[nH]c2c(Br)cccc2c1C1=Nc2ccccc2/C1=N/OCCN1CCCC1
GI50 (HS 578T breast): 1.2 µM
TGI (HS 578T breast): 3 µM
GI50 (A549 NSCLC): 1.91 µM
GI50 (OVCAR-5 ovarian): 1.21 µM and 1.91 µM
TGI (OVCAR-5 ovarian): 4.82 µM and 14.7 µM
GI50 (NCI-H226 lung): 0.948 µM and 0.708 µM
TGI (NCI-H226 lung): 3.05 µM and 29.1 µM
GI50 (HL-60(TB) leukemia): 1.04 µM and 0.998 µM
GI50 (MOLT-4 leukemia): 0.354 µM
TGI (MOLT-4 leukemia): 3.18 µM
GI50 (SN12C renal): 0.74 µM
TGI (SN12C renal): 4.99 µM and 8.59 µM
GI50 (UO-31 renal): 0.44 µM
TGI (UO-31 renal): 4.97 µM
GI50 (IGROV1 ovarian): 0.469 µM
TGI (IGROV1 ovarian): 2.98 µM

CCCCCCCCCCCCOC1C(C(COC2OC(C3COC(C)(C)O3)C3OC(C)(C)OC23)NC(=O)NS(=O)(=O)c2ccccc2)OC2OC(C)(C)OC21 (stereo not given)
GI50 (HS 578T breast): 2.9 µM
TGI (HS 578T breast): 11.1 µM
GI50 (A549 NSCLC): 4.58 µM
TGI (A549 NSCLC): 27.3 µM
GI50 (OVCAR-5 ovarian): 4.34 µM
TGI (OVCAR-5 ovarian): 13.8 µM
GI50 (NCI-H226 lung): 6 µM
TGI (NCI-H226 lung): 45.8 µM
GI50 (HL-60(TB) leukemia): 0.406 µM
TGI (HL-60(TB) leukemia): 2.69 µM
GI50 (MOLT-4 leukemia): 0.0149 µM
TGI (MOLT-4 leukemia): 0.12 µM
GI50 (SN12C renal): 3.95 µM
TGI (SN12C renal): 15.2 µM
GI50 (SK-OV-3 ovarian): 13.8 µM
TGI (SK-OV-3 ovarian): 28.1 µM
GI50 (UO-31 renal): 5.16 µM
TGI (UO-31 renal): 19.7 µM
GI50 (IGROV1 ovarian): 2.53 µM
TGI (IGROV1 ovarian): 11.2 µM

Cc1cc(NCc2cc(Nc3ccnc4cc(Cl)ccc34)ccc2F)nc(N2CCN(C)CC2)n1
GI50 (HS 578T breast): 1.87 µM
TGI (HS 578T breast): 5.21 µM
GI50 (A549 NSCLC): 3.07 µM
TGI (A549 NSCLC): 10.9 µM
GI50 (OVCAR-5 ovarian): 2.05 µM
TGI (OVCAR-5 ovarian): 5.17 µM
GI50 (NCI-H226 lung): 2.22 µM
TGI (NCI-H226 lung): 5.5 µM
GI50 (HL-60(TB) leukemia): 1.68 µM
TGI (HL-60(TB) leukemia): 3.67 µM
GI50 (MOLT-4 leukemia): 1.39 µM
TGI (MOLT-4 leukemia): 8.17 µM
GI50 (SN12C renal): 2.32 µM
TGI (SN12C renal): 8.31 µM
GI50 (SK-OV-3 ovarian): 3.31 µM
TGI (SK-OV-3 ovarian): 9.88 µM
GI50 (UO-31 renal): 1.38 µM
TGI (UO-31 renal): 3.11 µM
GI50 (IGROV1 ovarian): 2.08 µM
TGI (IGROV1 ovarian): 5.76 µM

COc1cccc2c1C(=O)c1c(O)c3c(c(O)c1C2=O)C[C@@](O)(C(=O)CO)C[C@@H]3O[C@H]1C[C@H](N)[C@@H](O)[C@H](C)O1
GI50 (HS 578T breast): 0.257 µM
TGI (HS 578T breast): 3.3 µM
GI50 (A549 NSCLC): 0.05 µM
TGI (A549 NSCLC): 1.22 µM
GI50 (OVCAR-5 ovarian): 1.27 µM
TGI (OVCAR-5 ovarian): 13 µM
GI50 (NCI-H226 lung): 0.068 µM
TGI (NCI-H226 lung): 0.222 µM
GI50 (HL-60(TB) leukemia): 0.145 µM
TGI (HL-60(TB) leukemia): 1.01 µM
GI50 (MOLT-4 leukemia): 0.0326 µM
TGI (MOLT-4 leukemia): 0.285 µM
GI50 (SN12C renal): 0.126 µM
TGI (SN12C renal): 11.9 µM
GI50 (SK-OV-3 ovarian): 0.318 µM
TGI (SK-OV-3 ovarian): 31.6 µM
GI50 (UO-31 renal): 0.866 µM
TGI (UO-31 renal): 5.89 µM
GI50 (IGROV1 ovarian): 0.175 µM
TGI (IGROV1 ovarian): 21.2 µM

CN(C)CC1C(=O)O[C@H]2[C@H]1CC/C(COC(=O)c1cc3ccccc3[nH]1)=C\CC[C@@]1(C)O[C@@H]21 (stereo not given in full)
GI50 (HS 578T breast): 2.93 µM
TGI (HS 578T breast): 13.6 µM
GI50 (A549 NSCLC): 4.62 µM
TGI (A549 NSCLC): 14.3 µM
GI50 (OVCAR-5 ovarian): 2.37 µM
TGI (OVCAR-5 ovarian): 6.15 µM
GI50 (NCI-H226 lung): 3.23 µM
TGI (NCI-H226 lung): 9.35 µM
GI50 (HL-60(TB) leukemia): 0.663 µM
TGI (HL-60(TB) leukemia): 3.53 µM
GI50 (MOLT-4 leukemia): 1.98 µM
TGI (MOLT-4 leukemia): 7.32 µM
GI50 (SN12C renal): 2.2 µM
TGI (SN12C renal): 6.08 µM
GI50 (SK-OV-3 ovarian): 19.9 µM
TGI (SK-OV-3 ovarian): 39.3 µM
GI50 (UO-31 renal): 0.872 µM
TGI (UO-31 renal): 2.36 µM
GI50 (IGROV1 ovarian): 1.97 µM
TGI (IGROV1 ovarian): 4.62 µM

CC(C)c1c(O)ccc2c1CCC1C(C)(C)CCCC21C (stereo not given)
TGI (HS 578T breast): 57.2 µM
TGI (A549 NSCLC): 31.9 µM
TGI (OVCAR-5 ovarian): 28.1 µM
TGI (NCI-H226 lung): 33.6 µM
TGI (HL-60(TB) leukemia): 52.3 µM
TGI (MOLT-4 leukemia): 43.3 µM
TGI (SN12C renal): 27.8 µM
TGI (SK-OV-3 ovarian): 33.4 µM
TGI (UO-31 renal): 31.4 µM
TGI (IGROV1 ovarian): 30 µM

Oc1ccccc1CNCC12CC3CC(CC(C3)C1)C2
GI50 (HS 578T breast): 19.4 µM
TGI (HS 578T breast): 74.4 µM
GI50 (OVCAR-5 ovarian): 33 µM
TGI (OVCAR-5 ovarian): > 100 µM
GI50 (NCI-H226 lung): 68.5 µM
TGI (NCI-H226 lung): > 100 µM
GI50 (HL-60(TB) leukemia): 22 µM
TGI (HL-60(TB) leukemia): 53.3 µM
GI50 (MOLT-4 leukemia): 24.5 µM
TGI (MOLT-4 leukemia): 70.2 µM
GI50 (SN12C renal): 32.6 µM
TGI (SN12C renal): > 100 µM
GI50 (SK-OV-3 ovarian): 35.8 µM
TGI (SK-OV-3 ovarian): > 100 µM
GI50 (UO-31 renal): 20.3 µM
TGI (UO-31 renal): > 100 µM
GI50 (IGROV1 ovarian): 41.8 µM
TGI (IGROV1 ovarian): > 100 µM
